According to patent US20240124439A1, “Pyrido[2,3-D]Imidazole Derivatives and Their Use As Inhibitors of ITK for the Treatment of Skin Disease” (Pfizer Inc., priority 2020, published 2024):

Key:
[1] = biological target: IL-2-Inducible T-Cell Kinase (ITK) (Homo sapiens (Human), UniProt Q08881); assay: ITK enzyme assay (IL-2-inducible T-cell kinase activity); type: biochemical; settings: geometric mean of count n
Outline: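 Full-length N-Flag/C-His human ITK, pre-incubated 30 min at RT with compound. Reaction in HEPES pH 7.5 buffer with MgCl2, glutathione, gelatin and Brij-35, started with BTK peptide substrate, 60 min at RT. EDTA stop, PT66/APC TR-FRET detection overnight; IC50 fitted by four-parameter logistic.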

[2] = tested on: activated CD4+ human T-cells (IL-2); assay: IL-2 inhibition in supernatants from activated CD4+ human T-cells (cisbio HTRF); type: cell-based; settings: T-cell; CD3/CD28-activated CD4+ human T cells, ImmunoCult stimulation 20 to 24 hrs; geometric mean of count n
Outline: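 Primary human CD4+ T cells activated with CD3/CD28 for 3 days and expanded to 7-9 days total, plated at 30,000 cells/well. Cells preincubated 15 min with compound, then stimulated with ImmunoCult (1:50 final) for 20-24 h at 37° C. Supernatant IL-2 measured by HTRF (665/615 nm); IC50 from four-parameter logistic fit.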

[3] = biological target: Tropomyosin Receptor Kinase A (TRKA), NTRK1 enzyme (Homo sapiens (Human), UniProt P04629); assay: TRKA (NTRK1) ThermoFisher Z'-LYTE enzyme assay; type: biochemical; settings: test compound 1 uM, ATP 1 mM; arithmetic mean of count n
Experimental: TRKA, also known as neurotrophic tyrosine kinase receptor type 1 (NTKR1) activity was determined by measuring the effect of a test compound on the activity against the NTRK1 enzyme using the ThermoFisher Z′-LYTE Assay fluorescence-based coupled enzyme format (www.thermofisher.com/selectscreen). Test compounds were screened at a fixed concentration of 1 uM and the % inhibition was determined compared to controls at a fixed ATP concentration of 1 mM. The resulting effect value for the tested compound was compared to the assay controls to determine the % inhibition (%).

Tropomyosin Receptor Kinase A (TRKA), NTRK1 enzyme, sequence (P04629 33-796): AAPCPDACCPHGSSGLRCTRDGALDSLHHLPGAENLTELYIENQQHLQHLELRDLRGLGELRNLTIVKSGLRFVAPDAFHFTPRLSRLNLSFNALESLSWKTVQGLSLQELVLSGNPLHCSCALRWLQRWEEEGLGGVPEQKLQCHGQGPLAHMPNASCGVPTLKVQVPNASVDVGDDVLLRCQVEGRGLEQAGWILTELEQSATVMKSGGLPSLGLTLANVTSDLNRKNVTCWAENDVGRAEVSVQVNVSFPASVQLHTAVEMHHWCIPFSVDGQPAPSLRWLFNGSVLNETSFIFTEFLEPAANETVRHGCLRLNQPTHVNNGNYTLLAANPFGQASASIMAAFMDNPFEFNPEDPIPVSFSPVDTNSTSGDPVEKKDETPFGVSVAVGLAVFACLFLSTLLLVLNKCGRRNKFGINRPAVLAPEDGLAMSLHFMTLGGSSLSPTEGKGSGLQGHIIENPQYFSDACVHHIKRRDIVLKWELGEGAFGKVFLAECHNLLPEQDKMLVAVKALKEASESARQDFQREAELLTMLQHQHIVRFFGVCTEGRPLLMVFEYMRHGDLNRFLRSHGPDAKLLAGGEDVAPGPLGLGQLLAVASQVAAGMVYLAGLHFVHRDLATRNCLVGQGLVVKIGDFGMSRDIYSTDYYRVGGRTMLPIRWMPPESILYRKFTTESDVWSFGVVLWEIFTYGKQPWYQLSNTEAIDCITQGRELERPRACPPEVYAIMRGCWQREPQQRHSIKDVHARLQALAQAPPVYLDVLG
IL-2-Inducible T-Cell Kinase (ITK), sequence (Q08881 whole entry): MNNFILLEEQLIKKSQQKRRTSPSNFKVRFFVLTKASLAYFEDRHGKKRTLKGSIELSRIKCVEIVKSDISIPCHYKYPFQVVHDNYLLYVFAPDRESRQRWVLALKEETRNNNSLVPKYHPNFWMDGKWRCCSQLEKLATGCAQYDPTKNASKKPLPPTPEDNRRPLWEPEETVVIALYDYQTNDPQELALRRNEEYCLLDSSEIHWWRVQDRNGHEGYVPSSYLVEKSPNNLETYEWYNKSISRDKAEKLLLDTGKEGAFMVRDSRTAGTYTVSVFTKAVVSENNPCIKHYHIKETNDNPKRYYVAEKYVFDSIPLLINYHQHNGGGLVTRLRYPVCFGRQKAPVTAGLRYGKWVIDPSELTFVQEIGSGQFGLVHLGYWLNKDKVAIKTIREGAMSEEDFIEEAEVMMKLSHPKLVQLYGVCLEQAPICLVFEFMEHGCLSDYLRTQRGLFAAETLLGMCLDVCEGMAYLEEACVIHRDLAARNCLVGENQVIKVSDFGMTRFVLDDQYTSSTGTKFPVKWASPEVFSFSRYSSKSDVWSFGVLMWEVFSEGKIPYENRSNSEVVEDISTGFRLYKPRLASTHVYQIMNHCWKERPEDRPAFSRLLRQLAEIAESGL

`C[C@@H](C(=O)N(C)c1cnc2[nH]c(-c3n[nH]c4c3C[C@@H]3C[C@]3(C)C4)nc2c1)C1CCOCC1` [Example 1, (R)-N-Methyl-N-(2-((4aS,5aR)-5a-methyl-1,4,4a,5,5a,6-hexahydrocyclopropa[f]indazol-3-yl)-3H-imidazo[4,5-b]pyridin-6-yl)-2-(tetrahydro-2H-pyran-4-yl)propenamide] was tested, and the IC50 [1] was 9 nM, the IC50 [2] was 67 nM and the inhibition at 1 µM [3] was 96%.
For `CN(C(=O)C(F)(F)C1CCOCC1)c1cnc2[nH]c(-c3n[nH]c4c3C[C@@H]3C[C@]3(C)C4)nc2c1` [Example 2, 2,2-Difluoro-N-methyl-N-(2-((4aS,5aR)-5a-methyl-1,4,4a,5,5a,6-hexahydrocyclopropa[f]indazol-3-yl)-3H-imidazo[4,5-b]pyridin-6-yl)-2-(tetrahydro-2H-pyran-4-yl)acetamide], the IC50 [1] was 14 nM, the IC50 [2] was 92 nM and the inhibition at 1 µM [3] was 108%.
Compound `C[C@H](C(=O)N(C)c1cnc2[nH]c(-c3n[nH]c4c3C[C@@H]3C[C@]3(C)C4)nc2c1)C1CCOCC1` [Example 10, (S)-N-Methyl-N-(2-((4aS,5aR)-5a-methyl-1,4,4a,5,5a,6-hexahydrocyclopropa[f]indazol-3-yl)-3H-imidazo[4,5-b]pyridin-6-yl)-2-(tetrahydro-2H-pyran-4-yl)propanamide] has an IC50 [1] of 91 nM, an IC50 [2] of 338 nM and an inhibition at 1 µM [3] of 98%.
Work on `C[C@@H](C(=O)N(C)c1cnc2[nH]c(-c3n[nH]c4c3CCC(C)(C)C4)nc2c1)N1CCOCC1` [Example 14, (S)-N-(2-(6,6-Dimethyl-4,5,6,7-tetrahydro-1H-indazol-3-yl)-3H-imidazo[4,5-b]pyridin-6-yl)-N-methyl-2-morpholinopropanamide] yielded an IC50 [2] of 157 nM and an inhibition at 1 µM [3] of 92%.
`C[C@@H](C(=O)N(C)c1cc2[nH]c(-c3n[nH]c4c3C[C@@H]3C[C@]3(C)C4)nc2nc1F)N1CCOCC1` [Example 17, (S)-N-(5-Fluoro-2-((4aS,5aR)-5a-methyl-1,4,4a,5,5a,6-hexahydrocyclopropa[f]indazol-3-yl)-1H-imidazo[4,5-b]pyridin-6-yl)-N-methyl-2-morpholinopropanamide] gave an IC50 [1] of 41 nM, an IC50 [2] of 307 nM and an inhibition at 1 µM [3] of 96%.
`CCN(C(=O)[C@H](C)C1CCOCC1)c1cnc2[nH]c(-c3n[nH]c4c3CCC(C)(C)C4)nc2c1` [Example 18] gave an IC50 [2] of 162 nM and an inhibition at 1 µM [3] of 97%.
`C[C@H](C(=O)N(C)c1cnc2[nH]c(-c3n[nH]c4c3C[C@@H]3C[C@]3(C)C4)nc2c1)N1CCOCC1` [Example 26, (R)-N-Methyl-N-(2-((4aS,5aR)-5a-methyl-1,4,4a,5,5a,6-hexahydrocyclopropa[f]indazol-3-yl)-3H-imidazo[4,5-b]pyridin-6-yl)-2-morpholinopropanamide] gave an IC50 [2] of 631 nM and an inhibition at 1 µM [3] of 91%.
`CC(C)CC(=O)N(C)c1cnc2[nH]c(-c3n[nH]c4c3CCC(C)(C)C4)nc2c1` [Example 102, N-(2-(6,6-Dimethyl-4,5,6,7-tetrahydro-1H-indazol-3-yl)-3H-imidazo[4,5-b]pyridin-6-yl)-N,3-dimethylbutanamide] was tested, and the IC50 [1] was 269 nM and the IC50 [2] was 749 nM.
`CC(C)C(=O)N(C)c1cnc2[nH]c(-c3n[nH]c4c3CCC(C)(C)C4)nc2c1` [Example 103, N-(2-(6,6-Dimethyl-4,5,6,7-tetrahydro-1H-indazol-3-yl)-3H-imidazo[4,5-b]pyridin-6-yl)-N-methylisobutyramide] gave an IC50 [1] of 104 nM and an IC50 [2] of 392 nM.
Work on `CN(C(=O)C1(C)CCC1)c1cnc2[nH]c(-c3n[nH]c4c3CCC(C)(C)C4)nc2c1` [Example 104, N-(2-(6,6-Dimethyl-4,5,6,7-tetrahydro-1H-indazol-3-yl)-3H-imidazo[4,5-b]pyridin-6-yl)-N,1-dimethylcyclobutane-1-carboxamide] yielded an IC50 [1] of 101 nM and an IC50 [2] of 517 nM.
In the case of `CN(C(=O)C1CCC1)c1cnc2[nH]c(-c3n[nH]c4c3CCC(C)(C)C4)nc2c1` [Example 105, N-(2-(6,6-Dimethyl-4,5,6,7-tetrahydro-1H-indazol-3-yl)-3H-imidazo[4,5-b]pyridin-6-yl)-N-methylcyclobutanecarboxamide], the IC50 [1] is reported as 123 nM and the IC50 [2] is reported as 732 nM.
With `CC(C)CCC(=O)N(C)c1cnc2[nH]c(-c3n[nH]c4c3CCC(C)(C)C4)nc2c1` [Example 106, N-(2-(6,6-Dimethyl-4,5,6,7-tetrahydro-1H-indazol-3-yl)-3H-imidazo[4,5-b]pyridin-6-yl)-N,4-dimethylpentanamide] the IC50 [1] was 245 nM and the IC50 [2] was 1090 nM.
In the case of `CCC(CC)C(=O)N(C)c1cnc2[nH]c(-c3n[nH]c4c3CCC(C)(C)C4)nc2c1` [Example 107, N-(2-(6,6-Dimethyl-4,5,6,7-tetrahydro-1H-indazol-3-yl)-3H-imidazo[4,5-b]pyridin-6-yl)-2-ethyl-N-methylbutanamide], the IC50 [1] is reported as 564 nM and the IC50 [2] is reported as 1870 nM.
`CCCC(=O)N(C)c1cnc2[nH]c(-c3n[nH]c4c3CCC(C)(C)C4)nc2c1` [Example 108, N-(2-(6,6-Dimethyl-4,5,6,7-tetrahydro-1H-indazol-3-yl)-3H-imidazo[4,5-b]pyridin-6-yl)-N-methylbutyramide] was tested, and the IC50 [1] was 100 nM and the IC50 [2] was 367 nM.
With `CN(C(=O)C1(C)CCOCC1)c1cnc2[nH]c(-c3n[nH]c4c3CCC(C)(C)C4)nc2c1` [Example 109, N-(2-(6,6-Dimethyl-4,5,6,7-tetrahydro-1H-indazol-3-yl)-3H-imidazo[4,5-b]pyridin-6-yl)-N,4-dimethyltetrahydro-2H-pyran-4-carboxamide] the IC50 [1] was 421 nM and the IC50 [2] was 908 nM.
Work on `CN(C(=O)C1CCC(F)(F)CC1)c1cnc2[nH]c(-c3n[nH]c4c3CCC(C)(C)C4)nc2c1` [Example 110, N-(2-(6,6-Dimethyl-4,5,6,7-tetrahydro-1H-indazol-3-yl)-3H-imidazo[4,5-b]pyridin-6-yl)-4,4-difluoro-N-methylcyclohexane-1-carboxamide] yielded an IC50 [1] of 554 nM and an IC50 [2] of 1590 nM.
`CN(C(=O)C1(C)CCCCO1)c1cnc2[nH]c(-c3n[nH]c4c3CCC(C)(C)C4)nc2c1` (stereo not drawn) [Example 112, N-(2-(6,6-Dimethyl-4,5,6,7-tetrahydro-1H-indazol-3-yl)-3H-imidazo[4,5-b]pyridin-6-yl)-N,2-dimethyltetrahydro-2H-pyran-2-carboxamide] showed an IC50 [1] of 234 nM and an IC50 [2] of 895 nM.
Work on `CN(C(=O)C1CCCC1)c1cnc2[nH]c(-c3n[nH]c4c3CCC(C)(C)C4)nc2c1` [Example 113, N-(2-(6,6-Dimethyl-4,5,6,7-tetrahydro-1H-indazol-3-yl)-3H-imidazo[4,5-b]pyridin-6-yl)-N-methylcyclopentanecarboxamide] yielded an IC50 [1] of 350 nM and an IC50 [2] of 1620 nM.
`CN(C(=O)CC1CCOCC1)c1cnc2[nH]c(-c3n[nH]c4c3CCC(C)(C)C4)nc2c1` [Example 114, N-(2-(6,6-Dimethyl-4,5,6,7-tetrahydro-1H-indazol-3-yl)-3H-imidazo[4,5-b]pyridin-6-yl)-N-methyl-2-(tetrahydro-2H-pyran-4-yl)acetamide] gave an IC50 [1] of 156 nM and an IC50 [2] of 1510 nM.
In the case of `C[C@H](C(=O)N(C)c1cnc2[nH]c(-c3n[nH]c4c3C[C@@H]3C[C@]3(C)C4)nc2c1)N1C[C@H]2CC[C@@H]1CO2` [Example 115], the IC50 [1] is reported as 142 nM and the IC50 [2] is reported as 415 nM.
`C[C@@H](C(=O)N(C)c1cnc2[nH]c(-c3n[nH]c4c3C[C@@H]3C[C@]3(C)C4)nc2c1)N1C[C@H]2CC[C@@H]1CO2` [Example 116, (S)-2-((1R,4R)-2-Oxa-5-azabicyclo[2.2.2]octan-5-yl)-N-methyl-N-(2-((4aS,5aR)-5a-methyl-1,4,4a,5,5a,6-hexahydrocyclopropa[f]indazol-3-yl)-3H-imidazo[4,5-b]pyridin-6-yl)propanamide] showed an IC50 [1] of 18 nM and an IC50 [2] of 172 nM.
In the case of `C[C@H](C(=O)N(C)c1cnc2[nH]c(-c3n[nH]c4c3C[C@@H]3C[C@]3(C)C4)nc2c1)N1CCCCC1` [Example 117, (R)-N-Methyl-N-(2-((4aS,5aR)-5a-methyl-1,4,4a,5,5a,6-hexahydrocyclopropa[f]indazol-3-yl)-3H-imidazo[4,5-b]pyridin-6-yl)-2-(piperidin-1-yl)propanamide], the IC50 [1] is reported as 275 nM and the IC50 [2] is reported as 769 nM.
`C[C@@H](C(=O)N(C)c1cnc2[nH]c(-c3n[nH]c4c3C[C@@H]3C[C@]3(C)C4)nc2c1)N1CCCCC1` [Example 118, (S)-N-Methyl-N-(2-((4aS,5aR)-5a-methyl-1,4,4a,5,5a,6-hexahydrocyclopropa[f]indazol-3-yl)-3H-imidazo[4,5-b]pyridin-6-yl)-2-(piperidin-1-yl)propanamide] showed an IC50 [1] of 243 nM and an IC50 [2] of 727 nM.
Work on `CC(C(=O)N(C)c1cnc2[nH]c(-c3n[nH]c4c3C[C@@H]3C[C@]3(C)C4)nc2c1)N1C2COCC1C2` (stereo partly drawn) [Example 119, 2-(3-Oxa-6-azabicyclo[3.1.1]heptan-6-yl)-N-methyl-N-(2-((4aS,5aR)-5a-methyl-1,4,4a,5,5a,6-hexahydrocyclopropa[f]indazol-3-yl)-3H-imidazo[4,5-b]pyridin-6-yl)propanamide] yielded an IC50 [1] of 470 nM and an IC50 [2] of 4210 nM.
For `CC(C(=O)N(C)c1cnc2[nH]c(-c3n[nH]c4c3C[C@@H]3C[C@]3(C)C4)nc2c1)N1CCCCC1` (stereo partly drawn) [Example 120, N-Methyl-N-(2-((4aS,5aR)-5a-methyl-1,4,4a,5,5a,6-hexahydrocyclopropa[f]indazol-3-yl)-3H-imidazo[4,5-b]pyridin-6-yl)-2], the IC50 [1] was 788 nM and the IC50 [2] was 2340 nM.
